Laboratory results: ChEMBL document CHEMBL5614451, “Structure-Activity Relationship of Oxacyclo- and Triazolo-Containing Respiratory Syncytial Virus Polymerase Inhibitors” (ACS Med Chem Lett, 2024)

What was measured:
[1] = system: Respiratory syncytial virus; assay: Antiviral activity against RSV; assay type: functional, organism-based; settings: human respiratory syncytial virus
[2] = Inhibition of RSV RdRp L/P; set-up: species or system Respiratory syncytial virus
[3] = Inhibition of RSV RdRp L/P measured after 120 mins by SPA; set-up: species or system Respiratory syncytial virus
[4] = Intrinsic clearance in rat liver microsome at 1 uM preincubated for 5 mins followed by NADPH addition measured upto 60 mins by LC-MS/MS analysis; assay type: ADME; settings: liver microsomes, time 65 min, read-out: CLH
[5] = system: Respiratory syncytial virus; assay: Antiviral activity against RSV A2 expressing e-GFP infected in human HeLa cells incubated for 3 days by […]; assay type: functional, organism-based; settings: 72 h
[6] = Intrinsic clearance in human liver microsome at 1 uM preincubated for 5 mins followed by NADPH addition measured upto 60 mins by LC-MS/MS analysis; assay type: ADME; settings: liver microsomes, time 65 min, read-out: CLH
[7] = Cytotoxicity against human HeLa cells incubated for 3 days by ATPlite analysis; assay type: toxicity, cell-based; settings: time 3 day

SMILES	EC50 [1] [nM]	IC50 [2] [nM]	IC50 [3] [nM]	microsomal CLint at 1 µM [4] [µL/min/mg]	EC50 [5] [nM]	microsomal CLint at 1 µM [6] [µL/min/mg]	CC50 at 72 h [7] [nM]
COc1cc(C(=O)NC[C@](O)(c2cc(C(C)(C)O)c(F)c(-c3ccc(F)cc3)n2)C(F)(F)F)cc2cc(C)nnc12	0.38	0.29					
COc1cc(-c2cn(CC3(c4cc(C(C)(C)O)c(F)c(-c5ccc(F)cc5)n4)CCO3)nn2)cc2cccnc12 (stereo unspecified)			4.1	42.7	10	54.2	23600
COc1cc(C(=O)NCC(O)(c2cc(C(C)(C)O)c(F)c(-c3ccc(F)cc3)n2)C(F)(F)F)cc2cccnc12 (stereo unspecified)			0.63	168	11	12.1	16000
COc1cc(C(=O)NCC2(c3cc(C(C)(C)O)c(F)c(-c4ccc(F)cc4)n3)CC(=O)CO2)cc2cc(C)nnc12 (stereo unspecified)			2.5		18	126	> 5000
COc1cc(-c2cn(CC(=O)c3cc(C(C)(C)O)c(F)c(-c4ccc(F)cc4)n3)nn2)cc2cccnc12			77	10.8	200	14.3	> 50000
COc1cc(C(=O)NCC2(c3cc(C(C)(C)O)c(F)c(-c4ccc(F)cc4)n3)CC(O)CO2)cc2cc(C)nnc12 (stereo unspecified)			1.9		17	14.6	> 5000
COc1cc(C(=O)NCC(=O)c2cc(C(C)(C)O)c(F)c(-c3ccc(F)cc3)n2)cc2cc(C)nnc12			3.4		6.5	9.5	31000
COc1cc(-c2cn(C[C@](O)(c3cc(C(C)(C)O)c(F)c(-c4ccc(F)cc4)n3)C(F)(F)F)nn2)cc2cccnc12			16	< 7.7	74	< 7.7	13000
COc1cc(C(=O)NCC2(c3cc(C(C)(C)O)c(F)c(-c4ccc(F)cc4)n3)OCCO2)cc2cc(C)nnc12			0.25		1.2	13.3	> 50000
COc1cc(C(=O)NCC2(c3cc(C(C)(C)O)c(F)c(-c4ccc(F)cc4)n3)OCCC23CC3)cc2cc(C)nnc12 (stereo unspecified)			0.55		0.41	> 347	> 5000
COc1cc(C(=O)NCC2(c3cc(C(C)(C)O)c(F)c(-c4ccc(F)cc4)n3)CCCO2)cc2cc(C)nnc12 (stereo unspecified)			0.8		0.73	> 20	18000
COc1cc(C(=O)NCC2(c3cc(C(C)(C)O)c(F)c(-c4ccc(F)cc4)n3)CC(F)(F)CO2)cc2cc(C)nnc12 (stereo unspecified)			0.78		2.3	117	> 5000
COc1cc(C(=O)NCC2(c3cc(C(C)(C)O)c(F)c(-c4ccc(F)cc4)n3)CCCCO2)cc2cc(C)nnc12 (stereo unspecified)			44		170	> 347	> 25000
COc1cc(-c2cn(CC3(c4cc(C(C)(C)O)c(F)c(-c5ccc(F)cc5)n4)CCCO3)nn2)cc2cccnc12 (stereo unspecified)			22		108	> 347	> 5000
COc1cc(C(=O)NCC2(c3cc(C(C)(C)O)c(F)c(-c4ccc(F)cc4)n3)OCCC2=O)cc2cc(C)nnc12 (stereo unspecified)			0.1		0.22	110	> 5000
COc1cc(C(=O)NCC2(c3cc(C(C)(C)O)c(F)c(-c4ccc(F)cc4)n3)OCCC2O)cc2cc(C)nnc12 (stereo unspecified)			1.9		0.13	18.4	> 5000
